Measured values published in publication PMC8006935, “Study of Combinatorial Drug Synergy of Novel Acridone Derivatives With Temozolomide Using in-silico and in-vitro Methods in the Treatment of Drug-Resistant Glioma” (Frontiers in Oncology, 2021).
Like-named read-outs stand apart in the source and are kept apart here.

Key:
[1] = system: U-87 (Uppsala 87) Glioma cell lines; experiment: Sulforhodamine B assay, U-87 drug sensitive Glioma cells; assay type: cell-based
Experimental: (§1) In order to test the growth inhibition potential of the TMZ and Acridone derivatives on Glioma, the U-87 (Uppsala 87) Glioma cell lines and T-98 (Temozolomide resistant) Glioma cell lines were treated with Temozolomide (TMZ) and Acridone derivatives AC2, AC7, and AC26. The African Green Monkey Kidney Vero cell lines were used as control for the study. The Vero cell lines were obtained from the National Center for Cell Sciences (NCCS), Pune, while the U-87 and T-98 cell lines were carried in the lab of Dr. GJ Peters, Cancer Center Amsterdam (CCA), VU University Medical Center, Amsterdam, Netherlands. The Mycoplasma testing was done by using the Universal Mycoplasma Detection Kit (ATCC® 30-1012K™) every 6 months. The Vero cell lines have been used as control as they are normal kidney epithelial cells and are non-cancerous in nature. The Vero cell lines have been routinely used for testing cytotoxicity of small molecules by various researchers ([22], [23]). Also, in our previous study, Vero cell lines have been used for testing safety and efficacy of Acridone derivatives for Lung, Cervical, and Breast Cancer studies ([13]).
(§2) Cell viability was found using the Sulforhodamine B (SRB) assay to measure the cellular protein content which provides better sensitivity in comparison to MTT assay ([24]). Moreover, as this method is dependent on the property of the SRB dye, it acts by binding to proteins under slightly acidic conditions and can be exposed to basic conditions for its extraction. The resulting amount of bound dye is then utilized as a proxy for cell mass ([25]). This cell mass can then be extrapolated to measure cell growth.
(§3) Glioma cells were cultured in Gibco (RPMI 1640) complemented with 10% fetal calf serum (Gibco). The cultures were then treated with trypsin-EDTA in order to detach/separate the cells from their culture flasks. The quickly proliferating cells were harvested, counted and plated at suitable concentrations in 96-well microplates. These microplates were subsequently incubated for 24 h. After incubation, drug compounds were dissolved in the culture media and placed in 96 well plates in triplicates, which were again incubated at 37°C under 5% CO2 for 72 h. 72 h later, the plates were removed and the cells were treated with cold Trichloroacetic acid (TCA) to fix the cultures and. 0.4% of SRB dissolved in 1% acetic acid was then added to the culture in order to stain the cells. Next, the bound stain was dissolved in 150 μl of 10 mM unbuffered Tris base left on a gyrator shaker. Thereafter, absorbance of the solution was measured at 540 nm utilizing a microplate reader. Absorbance readings (triplicate values) recorded were used to calculate percentage growth inhibition due to the effect of drugs using the following equations.
(§4) % Cell growth = Absorbance sample/Absorbance of control or untreated × 100
(§5) % Growth inhibition = 100 - % cell growth
(§6) The IC50 was calculated based on the log graph sheet which was developed in-house at the CCA, VU University Medical Center.
(§7) Selectivity Index (SI) is a ratio that measures the window between cytotoxicity and anticancer activity of the drugs ([26]). […] Here, IC50 is the inhibition concentration for inhibiting 50% of cancer cells and CC50 is cytotoxic concentration causing death of 50% viable cells in the host.

[2] = system: Drug resistant cancer cells (CR), T-98; experiment: Mathematical tumor growth model simulation and Bliss synergy, drug resistant cancer cells
[3] = system: T-98 (Temozolomide resistant) Glioma cell lines; experiment: Sulforhodamine B assay, T-98 TMZ resistant Glioma cells; assay type: cell-based; conditions: for IC50: Glioma cell
Experimental: as §1, §2, §3, §4, §5, §6, §7

[4] = Sulforhodamine B assay, Vero control cells; assay type: cell-based; conditions: African green monkey, Vero cells (normal kidney epithelial cells), SRB, read-out: Vero cell Line CC50
Experimental: as §1, §2
as §3, with “0.4% of SRB dissolved in 1% acetic acid was then added to the culture in order to stain the cells. Next, the bound stain was dissolved in 150 μl of 10 mM unbuffered Tris base left on a gyrator shaker.” left out
% Cell growth = Absorbance sample/Absorbance of control or untreated × 100 […]
The IC50 was calculated based on the log graph sheet which was developed in-house at the CCA, VU University Medical Center. […]

[5] = parameters: method as in PMID 18971416; conditions: equation proposed by Levin-log permeability; cited from earlier work
Glioma = system: Glioma; parameters: method as in PMID 19046047; conditions: administered along with surgery and radiotherapy; cited from earlier work
[6] = parameters: method as in PMID 20925470; conditions: high doses; cited from earlier work
[7] = SI = CC50 of Vero cell line /IC50 of Cancer cell line after 72 h

Question: With `Cn1nnc2c(C(N)=O)ncn2c1=O` [TMZ, 3-Methyl-4-oxo-3,4-dihydroimidazo[5,1-d][1,2,3,5]tetrazine-8-carboxamide] as the compound, how does the “U-87/WT SI” value [1, 7] read?
Answer: 20.66

Question: And the “Relative growth, experimental data for U-87 cell line” value (from here on “Relative growth … for U-87 cell line”) ([1]; TMZ dose 0.5)?
Answer: 98.47%

Question: What about the “Relative growth … for U-87 cell line” value ([1]; TMZ dose 1) of the same compound?
Answer: 97.76%

Question: And the “Relative growth … for U-87 cell line” value ([1]; TMZ dose 2.5)?
Answer: 97%

Question: And the “Relative growth … for U-87 cell line” value ([1]; TMZ dose 5)?
Answer: 94.93%

Question: And the “Relative growth … for U-87 cell line” value ([1]; TMZ dose 10)?
Answer: 87.32%

Question: What about the “Relative growth … for U-87 cell line” value ([1]; TMZ dose 25) of the same compound?
Answer: 50.41%

Question: And the “Relative growth … for U-87 cell line” value ([1]; TMZ dose 50)?
Answer: 47.71%

Question: What about the “Relative growth … for U-87 cell line” value ([1]; TMZ dose 100) of the same compound?
Answer: 40.87%

Question: What about the IC50 ([1]; U87WT, 72 h, SRB, Mean ± Standard Deviations in Table 4, read-out: U-87/WT IC50) of the same compound?
Answer: 23.3 ± 7.57 µM

Question: What about the “% fold change [(final-initial)/initial]*100” value ([2]; combination TMZ + AC2) of the same compound?
Answer: 80.8%

Question: And the “Fold change = final IC50/initial IC50” value ([2]; combination TMZ + AC2)?
Answer: 0.19

Question: And the “% fold change [(final-initial)/initial]*100” value ([2]; combination TMZ + AC7)?
Answer: 75.68%

Question: What about the “Fold change = final IC50/initial IC50” value ([2]; combination TMZ + AC7) of the same compound?
Answer: 0.24

Question: And the “Fold change = final IC50/initial IC50” value ([2]; combination TMZ + AC26)?
Answer: 0.54

Question: What about the IC50 ([3]; 72 h, SRB, Mean ± Standard Deviations in Table 4, read-out: T-98/TMZRES IC50) of the same compound?
Answer: > 100 µM

Question: And the IC50 ([3]; drug administered individually, drug resistant cells, read-out: Initial IC50)?
Answer: 190 µM

Question: What about the “T-98/TMZRES SI” value [3, 7] of the same compound?
Answer: 2.53

Question: And the “Relative growth, experimental data for T-98 cell line” value (“Relative growth … for T-98 cell line” for short) ([3]; TMZ dose 0.5)?
Answer: 98.26%

Question: And the “Relative growth … for T-98 cell line” value ([3]; TMZ dose 1)?
Answer: 97.74%

Question: And the “Relative growth … for T-98 cell line” value ([3]; TMZ dose 2.5)?
Answer: 96.65%

Question: And the “Relative growth … for T-98 cell line” value ([3]; TMZ dose 5)?
Answer: 95%

Question: What about the “Relative growth … for T-98 cell line” value ([3]; TMZ dose 10) of the same compound?
Answer: 87.43%

Question: And the “Relative growth … for T-98 cell line” value ([3]; TMZ dose 25)?
Answer: 61.98%

Question: What about the “Relative growth … for T-98 cell line” value ([3]; TMZ dose 50) of the same compound?
Answer: 52.77%

Question: And the “Relative growth … for T-98 cell line” value ([3]; TMZ dose 100)?
Answer: 50.87%

Question: What about the CC50 at 72 h [4] of the same compound?
Answer: 482 µM

Question: And the brain capillary permeability [5]?
Answer: ~2.7 ×10⁻⁶ cm/s

Question: What about the “increase of survival advantage” value (Glioma) of the same compound?
Answer: 2.5 times

Question: And the “dose leading to severe toxicity” value [6]?
Answer: more than 250 μM
